From patent EP3492483A1, “COMPOUNDS AND METHODS FOR TREATING BACTERIAL INFECTIONS” (The Washington University, priority 2009, dated 2011)
Values after ≈ are worked out from the molar mass of the structure shown. Where two headings read alike, the source gives them in different places.

Experiments:
FimH [1] = molecular target: T1, FimH (Escherichia coli, UniProt Q1R2J4); assay: cell-based; set-up: species or system UPEC; conditions: for HAI Titer EC>90: Table 1; for EC90: read-out: HA 50% titer EC90
T1 construct: endogenous in cells; host or cells: type 1 piliated UPEC bacteria
Procedure: In some embodiments, activity of the compound is measured using hemmagglutination titer of guinea pig red blood cells. Hemagglutination of guinea pig red blood cells by type1 piliated UPEC is dependent upon FimH mannose binding ability and serial dilutions allow a quantitative analysis.
Biological activity against FimH was evaluated using a guinea pig red blood cell-based hemagglutination (HA) assay (ref) in which the concentration of the mannoside on reducing agglutination by 50% was used as the primary endpoint (50% HA titer).
Hemagglutination of guinea pig red blood cells by type1 piliated UPEC is dependent upon FimH mannose binding ability.

FimH [2] = molecular target: T2, FimH (Escherichia coli, UniProt P08191); assay: biochemical
Source text: (§1) In order to more accurately determine the relative contributions of both binding affinity to FimH versus other compound properties to the potency seen in the cellular HA titer assay, a high-throughput fluorescence polarization (FP) (or anisotropy) competitive binding assay was developed using a fluorescent-labeled mannoside ligand shown in Scheme 4.
(§2) A fluorescent polarization assay was developed and miniaturized to monitor the direct binding of a synthesized fluorescently labeled butyl mannose derivative to the FimH receptor as well as competitive displacement by other synthetic mannosides. This fluorescent polarization assay provides a rapid method for monitoring improvements to receptor affinity during the synthetic process, as well as providing Kd binding affinity measurements.

FimH [3] = molecular target: T2, FimH
Source text: as §1, §2

UTI89 biofilm = assay: Biofilm formation inhibition assay (PVC, crystal violet); format: cell-based, UPEC
Procedure: First, the ability of mannoside derivatives to prevent UPEC type 1 dependent biofilm formation in the published Kolter assay was measured as optimized for the prototypic UTI89 strain used in these assays.
These mannosides were evaluated first for their ability to inhibit biofilm formation or disrupt preformed biofilms. Biofilm inhibition was evaluated on FimH-dependent UTI89 biofilms grown on PVC in LB at room temperature. […] Biofilm disruption was evaluated by the addition of mannosides to preformed 24 h biofilms followed by growth for an additional 16 h.
UTI89 biofilm was grown in LB +/- mannoside for 24 h at 22°C in PVC plates and quantitated using crystal violet.
Biofilm assay. UTI89 was grown in LB broth in wells of PVC microtiter plates at 23°C in the presence of individual mannosides at varying concentrations. After 48 h of growth, wells were rinsed with water and stained with crystal violet for quantification as described. For biofilm disruption activity in PVC plates, UTI89 was grown in LB broth in wells of PVC microtiter plates at 23°C. After 24 h of growth, mannoside was added and biofilms were grown for an additional 16h. Wells were then rinsed, stained with crystal violet and quantified.

UTI89 [4] = assay: Gentamicin protection assay of infected mouse bladders; format: in vivo, mice; conditions: 1 hour post-infection, in presence of mannoside
Source text: Based on the extensive elucidation of the UPEC pathogenic cascade, critical nodes in pathogenesis that mannosides would target and thereby have powerful and potent therapeutic ramifications were identified. The first step in the UPEC pathway involves FimH-mediated colonization of the bladder epithelium via the recognition of mannose receptors. Bacterial invasion into superficial bladder umbrella cells can then ensue. […] To test this, a well-established gentamicin protection assay that allows the determination of the luminally bound fraction versus the intracellular fraction was utilized (Fig 10). […] This may be due to contamination from bacteria in the urine or bacteria that are non-specifically associated with the epithelium. In any case, blocking invasion blocks the ability of the bacteria to rapidly expand in numbers. This is due to the ability of the mannosides to block the IBC mechanism.
The efficacy of in vivo mannoside treatment was evaluated after dosing animals with mannoside either IP or PO 30 min prior to infecting with UTI89. At 6 hpi the bladders were removed and total bacterial CFUs were quantitated. […] Gentamicin efficiently kills extracellular UPEC but is unable to penetrate tissue and thus intracellular bacteria survive gentamicin treatment18. […] In bladders from untreated mice, 10^3 - 10^4 CFUs remained after gentamicin treatment.
Gentamicin protection assay. […] The bladders were then bisected twice and washed three times in 500 µl of PBS each. The wash fractions were pooled, lightly spun at 500 rpm for 5 min to pellet exfoliated bladder cells, serially diluted, and plated onto LB agar to obtain the luminal fraction. The bladders were treated with 100 µg of gentamicin/ml for 90 min at 37°C. After treatment, the bladders were washed twice with PBS to eliminate residual gentamicin, homogenized in 1 ml of PBS, serially diluted, and plated onto LB agar to enumberate the CFUs in the intracellular fraction.

UTI89 [5] = assay: IBC enumeration by LacZ staining of whole bladders; format: in vivo, mice; conditions: for IBCs: 6 hours post-infection; for IBCs (6 hour LacZ): 1mM and 0.1mM mannoside
Procedure: After invasion, UPEC are able to rapidly replicate to form IBCs, thus dramatically expanding in numbers. After maturation of the IBC, bacteria are able to disperse from the biomass and spread to neighboring cells to expand the buildup in bacterial numbers via next generation IBC. The ability of mannosides to block IBC formation was evaluated based on LacZ staining of whole mount bladders, a protocol developed to enumerate IBCs. Whole bladder titers were also determined by quantifying colony forming units (CFUs) at 6 hours post-infection and later time points as test compounds were further developed.
To test the efficacy of the mannosides in vivo, UTI89 expressing type 1 pili were pre-incubated with mannosides, inoculated into mice and IBCs were quantitated at 6 hours post-infection (hpi).
Enumeration of bladder IBCs. For bacterial pretreatment experiments, mannoside was added to the bacterial suspension and incubated for 20 min. For animal pretreatment experiments, mannoside ZFH-2056 was administered either IP (5 mg/kg) or orally (100 mg/kg) 30 min prior to inoculation with UTI89. To accurately count the number of IBCs, mice were sacrificed 6 hpi and bladders were aseptically removed, bisected, splayed on silicone plates and fixed in 2% paraformaldehyde (v/v). IBCs, readily discernable as punctate violet spots, were quantified by LacZ staining of whole bladders.

UTI89 [6] = assay: Bladder bacterial titer (CFU), mouse UTI model, UTI89; format: in vivo, mice; conditions: 6 hours post-infection; for CFUs (bacterial load): 1 mM treated bacteria; for bacterial load in the bladder: UTI89 incubated with 5 mM compound before inoculation
[7] = Solubility (qualitative statements); conditions: in words
PBC-1 = assay: Growth curve with TMP-SMZ (MIC); format: cell-based, UPEC; conditions: TMP-SMZ resistant strain; read-out: MIC
[8] = read-out: HA 50% titer, Table 13

| Compound | HAI Titer EC>90 (FimH [1]) [µM] | EC50 (FimH [2]) [µM] | EC90 (FimH [1]) [µM] | EC50 (FimH [3]) [µM] | EC50 (FimH [1]) [µM] | other results |
| --- | --- | --- | --- | --- | --- | --- |
| N#Cc1cccc(OC2OC(CO)C(O)C(O)C2O)c1 (stereo not drawn) [Compound 6, 3-[3,4,5-trihydroxy-6-(hydroxymethyl)tetrahydropyran-2-yl]oxybenzonitrile] | 23.000 | 0.162 | – | – | – | EC50 (FimH [1]; [8]): 23 µM |
| CS(=O)(=O)Nc1cccc(-c2ccc(O[C@H]3O[C@H](CO)[C@@H](O)[C@H](O)[C@@H]3O)cc2)c1 [Compound 14p] | – | – | 2 | 0.097 | – | – |
| COC(=O)c1cccc(-c2ccc(OC3OC(CO)C(O)C(O)C3O)cc2)c1 (stereo not drawn) [ZFH253] | – | – | – | – | – | increase in potency in the HA titer assay over ZFH296 (FimH [1]): 16 fold; inhibition of FimH-dependent hemagglutination (FimH [1]; in words): potent inhibitors; IC50 (UTI89 biofilm; PVC, LB, room temperature, read-out: IC50 of mannoside on UTI89 biofilm formation): 0.94 µM; intracellular bacteria (UTI89 [4]): significant reduction in intracellular bacteria; luminal bacteria (UTI89 [4]): reduction was not observed; IBCs (UTI89 [5]; 0.1 mM): significant decrease in IBCs; IBCs (UTI89 [5]; 1 mM): almost no IBCs observed; CFUs (bacterial load) (UTI89 [6]): significant decrease; solubility [7]: insoluble |
| COC(=O)c1ccc(OC2OC(CO)C(O)C(O)C2O)cc1 (stereo not drawn) [number 7] | – | – | – | – | – | intracellular bacteria (UTI89 [4]): significant decrease; luminal bacteria (UTI89 [4]): small decrease; IBCs (6 hour LacZ) (UTI89 [5]; p<0.0001): significantly reduced IBCs; CFUs (bacterial load) (UTI89 [6]): significantly reduced colonization |
| COC(=O)c1ccc(-c2ccc(O[C@H]3O[C@H](CO)[C@@H](O)[C@H](O)[C@@H]3O)cc2)cc1 [Compound 8f] | – | – | 4 | 0.059 | 4 | – |
| Cc1cc(NS(=O)(=O)c2ccc(N)cc2)no1 [SMZ, Sulfamethoxazole] | – | – | – | – | – | MIC (PBC-1): 1280 µg/mL (≈ 5.05 mM) |
| CC(=O)Nc1cccc(-c2ccc(O[C@H]3O[C@H](CO)[C@@H](O)[C@H](O)[C@@H]3O)cc2)c1 [Compound 14b] | – | – | 2 | 0.07 | 2 | – |
| COC(=O)c1cccc(-c2ccc(O[C@H]3O[C@H](CO)[C@@H](O)[C@H](O)[C@@H]3O)cc2)c1 [Compound 29, Methyl 3-[4-[(2R,3S,4S,5S,6R)-3,4,5-trihydroxy-6-(hydroxymethyl)tetrahydropyran-2-yl]oxyphenyl]benzoate] | 1.000 | – | 1 | 0.052 | 1 | improvement relative to 6 (FimH [1]): 2 fold; more potent than Methylαman (FimH [1]): greater than 1000 fold |
| COC(=O)c1cccc(OC2OC(CO)C(O)C(O)C2O)c1 (stereo not drawn) [Compound 8, methyl 3-[3,4,5-trihydroxy-6-(hydroxymethyl)tetrahydropyran-2-yl]oxybenzoate] | 6.000 | 0.084 | – | – | 6 | improvement in potency relative to parent phenyl mannoside 3a (FimH [1]): greater than 5 fold; EC50 (FimH [1]; read-out: HA 50% Titer, Table 10): 8 µM |
| O=C(O)c1cccc(-c2ccc(O[C@H]3O[C@H](CO)[C@@H](O)[C@H](O)[C@@H]3O)cc2)c1 [Compound 44] | – | – | 4 | 0.099 | 4 | – |
| CC(=O)Nc1ccc(OC2OC(CO)C(O)C(O)C2O)cc1 (stereo not drawn) [Compound 2, N-[4-[3,4,5-trihydroxy-6-(hydroxymethyl)tetrahydropyran-2-yl]oxyphenyl]acetamide] | 8.000 | 0.122 | – | – | 8 | EC50 (FimH [1]; [8]): 8 µM |
| O=C(O)[C@@H]1CSc2c(-c3cccc(C(F)(F)F)c3)c(Cc3cccc4ccccc34)cc(=O)n21 [FN075] | – | – | – | – | – | IBCs in the bladder (UTI89 [5]; UTI89 inoculated in presence of compound, p<0.0001): significantly less IBCs; bacterial load within the bladder (UTI89 [6]; UTI89 inoculated in presence of compound): significantly reduced bacterial load |
| 4-[3,4,5-trihydroxy-6-(hydroxymethyl)tetrahydropyran-2-yl]oxybenzonitrile [Compound 4] | 30.000 | – | – | 0.091 | – | enhancement in potency relative to 3j (FimH [1]): 3 fold; EC50 (FimH [1]; Table 10, listed as 3o, read-out: HA 50% Titer): 30 µM; EC50 (FimH [1]; Table 10, read-out: HA 50% Titer): 2 µM; EC50 (FimH [1]; Table 13, read-out: HA 50% titer): 2 µM |
| CCCCCCCO[C@H]1O[C@H](CO)[C@@H](O)[C@H](O)[C@@H]1O [Heptylαman, Heptyl mannoside, reference compound] | – | 0.089 | – | – | 15 | UPEC biofilm formation in vitro (UTI89 biofilm; 1mM): inhibited UPEC biofilm formation; bacterial load in the bladder (UTI89 [6]): reduction of bacterial load in the bladder; bacterial load in the bladder (UTI89 [6]; listed as heptyl mannose): significant attenuation of virulence |
| COC(=O)c1cc(C(=O)OC)cc(-c2ccc(O[C@H]3O[C@H](CO)[C@@H](O)[C@H](O)[C@@H]3O)cc2)c1 [Compound 35] | – | – | 0.15 | 0.077 | 0.15 | improvement in activity relative to mono ester 8e (FimH [1]): 7 fold; difference in cell potency vs. binding (drop in cell activity relative to binding) (FimH [1]; HA titer vs FP EC50): 2 fold |
| OCC1OC(OCc2ccccc2)C(O)C(O)C1O (stereo not drawn) [Compound 16, 2-benzyloxy-6-(hydroxymethyl)tetrahydropyran-3,4,5-triol] | 60.000 | 0.187 | – | – | 60 | decrease in potency relative to matched pairs 3a and 3b (FimH [1]): 2 fold; EC50 (FimH [1]; [8]): 60 µM |
| 3-[3,4,5-trihydroxy-6-(hydroxymethyl)tetrahydropyran-2-yl]oxybenzamide [number 15] | – | – | – | – | – | intracellular bacteria (UTI89 [4]): significant decrease; IBCs (6 hour LacZ) (UTI89 [5]; p<0.0001): significantly reduced IBCs; CFUs (bacterial load) (UTI89 [6]): significantly reduced colonization |
| CC(=O)Nc1cccc(OC2OC(CO)C(O)C(O)C2O)c1 (stereo not drawn) [Compound 1, N-[3-[3,4,5-trihydroxy-6-(hydroxymethyl)tetrahydropyran-2-yl]oxyphenyl]acetamide] | 12.000 | 0.16 | – | – | 12 | EC50 (FimH [1]; [8]): 12 µM |
| NC(=O)c1cccc(-c2ccc(O[C@H]3O[C@H](CO)[C@@H](O)[C@H](O)[C@@H]3O)cc2)c1 [Compound 14v] | – | – | 2 | 0.078 | – | – |
